Laboratory results published in US20230135501A1, “GENE THERAPY” (UCL BUSINESS LTD, priority 2020, published 2023).

Tests used:
Assay type in all cases: cell-based
[1] = system: porcine primary RPE cells; test: POS-induced pseudopod/contractile cup formation, pMLC and POS centring at 30 min in primary porcine RPE cells
Excerpt: Fixation and processing cells and mouse tissue sections was as previously described in Zihni, C. et al (2017). The following antibodies were used: RPE65 mouse monoclonal (Millipore) 1/300 for immuno-fluorescence; p-MLC S19, mouse monoclonal (Cell Signaling Technology) immunofluorescence 1/100 and immunoblotting 1/1000; Dbl(3), rabbit polyclonal (Santa Cruz Biotechnology) immunofluorescence 1/200; MRCKβ, rabbit polyclonal (Santa Cruz Biotechnology) immunofluorescence 1/200 and immunoblotting 1/500; anti-Cdc42-GTP mouse monoclonal (NewEast Biosciences) immunofluorescence 1/50; N-WASP, rabbit polyclonal (Santa Cruz Biotechnology) immunofluorescence and immunoblotting 1/1000; MerTK rabbit monoclonal (Abcam 52968) immunofluorescence 1/100; Integrin αVβ5, mouse monoclonal (Clone P1F6) (Abcam 24694) immunofluorescence 1/100; pFAK Y397, rabbit polyclonal (Invitrogen) immunofluorescence 1/100; pSrc Y416, rabbit polyclonal (Cell Signaling Technology) immunofluorescence 1/100; Phalloidin-Atto 647 reagent was obtained from Sigma and diluted 1/1000. Affinity-purified and cross-adsorbed Alexa488-, Cy3- and Cy5-labelled donkey anti-mouse, rabbit, or goat secondary antibodies were from Jackson ImmunoResearch Laboratories (1/300 diluted from 50% glycerol stocks). Affinity-purified HRP-conjugated goat anti mouse and rabbit, and donkey anti goat secondary antibodies 1/5000 were also from Jackson ImmunoResearch Laboratories (1/5000 diluted from 50% glycerol stocks). For immunofluorescence analysis cells and tissues were mounted using Prolong Gold antifade reagent (Life technologies) and imaging was performed using Zeiss 700 and 710 confocal microscopes and a 64× oil lens/NA1.4. Images were processed using Zeiss Zen 2009 and Adobe Photoshop CS5 and 10 software. Co-immunoprecipitation and immunoblotting were carried out using methods previously described and were repeated at least three times.

Primary porcine RPE = test: POS/Gas-6 stimulated pseudopod assembly in serum-free primary porcine RPE; details: serum-free medium 4 h, 30 min stimulation with POS-FITC, with Gas-6
Method: Primary porcine RPE was cultured in serum-free medium, to eliminate effects of MerTK ligands, for 4 h followed by treatment with either N-WASP or MRCK inhibitor and a 30 min stimulation with POS-FITC in the absence or presence of Gas-6, which links MerTK to POS.

[2] = system: porcine primary RPE cells; test: POS phagocytosis (internalization) in primary porcine RPE cells; design: ability of RPE cells to internalize POS (confocal z-sections): dose or concentration left out as unconfirmed
Excerpt: Wilcoxon tests also were used where indicated.
The inventors next asked whether MRCKβ is directly involved in POS internalization using porcine primary RPE cells. […] MRCK was not required for POS to attach to the RPE, indicating integrin αVβ5-POS binding was not affected (FIGS. 2b and 2f). POS binding stimulates the formation of extended pseudopods that retract with internalization of POS. […] Thus, MRCKβ controls POS-induced membrane remodelling during phagocytic cup formation and particle internalization.

Q: Which results are given for `Cc1ccc2c(c1)C(=O)C1(O)CCN(c3ccccc3)C1=N2` (stereo not shown) [blebbistatin, Blebbistatin]?
A: pseudopod/cup organization ([1]; Blebbistatin used at 10 μM): disorganised pseudopods; POS centring at pseudopods/cups ([1]; POS for 30 minutes): loss of efficient POS centring

Q: Which results are given for `CN(C)C[C@H](O)Cn1c2ccc(Br)cc2c2cc(Br)ccc21` (racemic) [Wiskostatin]?
A: pMLC activity/staining at pseudopods/cups ([1]; POS for 30 minutes): reduced; less F-actin in pseudopods when compared to control cells ([1]; Wiskostatin used at 5 μM): approx. 50%; number of cells forming normal pseudopods ([1]; Wiskostatin used at 5 μM): drastic reduction

Q: Which “POS centring at pseudopods/cups” value ([1]; POS for 30 minutes) does the source give for `O=C(Nc1cn[nH]c1-c1ccccn1)c1nn(C2CCNCC2)cc1Cl` [BDP5290] here?
A: The value was “un-centred POS”.

Q: And the “efficiency of POS binding to RPE cells” value ([1]; POS for 30 minutes)?
A: Its value is “unaltered”.

Q: What about the “pMLC activity/staining at pseudopods/cups” value ([1]; POS for 30 minutes) of the same molecule?
A: Its value is “lack pMLC activity”.

Q: And the “MLC phosphorylation after blebbistatin washout” value ([1]; washout of blebbistatin in the presence of the MRCK inhibitor)?
A: Its value is “inhibition of MLC phosphorylation”.

Q: What about the POS-dependent pseudopod assembly (Primary porcine RPE) of the same molecule?
A: The POS-dependent pseudopod assembly was “did not inhibit”.

Q: What about the “phagocytosis of GOLD-labelled POS (transmission electron microscopy)” value ([2]; GOLD-labelled POS, TEM) of the same molecule?
A: The value was “inhibition of phagocytosis”.

Q: What about the “ability of RPE cells to internalize POS (confocal z-sections)” value ([2]; POS-FITC 1 h followed by 2 h chase) of the same molecule?
A: The value was “strongly inhibited”.

B1: Gas-6: growth arrest-specific 6, soluble protein which links MerTK to POS (protein, UniProt Q14393 31-678, looked up)
Growth arrest-specific …: ALLPAREATQFLRPRQRRAFQVFEEAKQGHLERECVEELCSREEAREVFENDPETDYFYPRYLDCINKYGSPYTKNSGFATCVQNLPDQCTPNPCDRKGTQACQDLMGNFFCLCKAGWGGRLCDKDVNECSQENGGCLQICHNKPGSFHCSCHSGFELSSDGRTCQDIDECADSEACGEARCKNLPGSYSCLCDEGFAYSSQEKACRDVDECLQGRCEQVCVNSPGSYTCHCDGRGGLKLSQDMDTCEDILPCVPFSVAKSVKSLYLGRMFSGTPVIRLRFKRLQPTRLVAEFDFRTFDPEGILLFAGGHQDSTWIVLALRAGRLELQLRYNGVGRVTSSGPVINHGMWQTISVEELARNLVIKVNRDAVMKIAVAGDLFQPERGLYHLNLTVGGIPFHEKDLVQPINPRLDGCMRSWNWLNGEDTTIQETVKVNTRMQCFSVTERGSFYPGSGFAFYSLDYMRTPLDVGTESTWEVEVVAHIRPAADTGVLFALWAPDLRAVPLSVALVDYHSTKKLKKQLVVLAVEHTALALMEIKVCDGQEHVVTVSLRDGEATLEVDGTRGQSEVSAAQLQERLAVLERHLRSPVLTFAGGLPDVPVTSAPVTAFYRGCMTLEVNRRLLDLDEAAYKHSDITAHSCPPVEPAAA
Q: B1 was tested. Which POS-dependent pseudopod assembly (Primary porcine RPE) did it give?
A: The POS-dependent pseudopod assembly was “sharp increase”.
